Each compound was assayed against HIF PHD2 (Homo sapiens, UniProt Q9GZT9) (assay: PHD2 inhibition assay (TR-FRET, VCB-Eu detection of hydroxylated P564-HIF1α peptide)). Conditions: 2 nM PHD2, 100 nM P564-HIF1α peptide, 0.25 μM 2-oxoglutarate, 100 μM FeCl2, 2 mM ascorbic acid.
Type: biochemical
Method: Inhibition of HIF PHD2 activity was quantified utilizing the TR-FRET technology. HIF PHD2 catalyzes a hydroxyl modification on the proline residue of the P564-HIF1α peptide substrate (Biotin-DLEMLAPYIPMDDDFQL (SEQ ID NO: 7)) resulting in recognition and binding of the europylated Von Hippel-Lindau protein (pVHL), elongin B and elongin C heterotrimeric (VCB-Eu) complex.
The PHD2 inhibition assay was executed by addition of freshly dissolved FeCl2 to 178.57 μM (100 μM final concentration) in PHD2 Reaction Buffer containing 30 mM MES, pH 6, 10 mM NaCl, 0.25% Brij-35, 0.01% BSA, and 1% DMSO. 28 μL of the iron solution and 2 μL of inhibitor compounds serially diluted in 100% DMSO (5% DMSO final) were added to black polypropylene 96-well microtiter plates. To that, 10 μL of 10 nM PHD2 (2 nM final) was added to all wells of the plate except for the 8 wells of column 12 (LO control), and allowed to incubate at room temperature on the shaker for one hour. Column 6 was the HI control containing PHD2 enzyme and 5% DMSO vehicle, but no inhibitor compound. To initiate the PHD2 enzymatic reaction, 10 μL of a solution containing 500 nM P564-HIF1α peptide (100 nM final), 10 mM ascorbic acid (2 mM final), and 1.25 μM 2-oxoglutarate (α-ketoglutarate; 0.25 μM final) in PHD2 Reaction Buffer was added to all wells of the plate and allowed to incubate on the shaker at room temperature for one hour.
The reaction was terminated by addition of 25 μL TR-FRET Buffer (50 mM TRIS-HCl, pH 9, 100 mM NaCl, 0.05% BSA, and 0.5% Tween-20) containing 150 mM succinate (product inhibitor; 50 mM final), 75 nM streptavidin-APC (25 nM final), and 7.5 nM VCB-Eu (2.5 nM final). The TR-FRET detection reagents were placed on a shaker for 1 hour to reach binding equilibrium before reading on the Discovery platform (PerkinElmer). Europium is excited at 315 nm and phosphoresces at 615 nm with a large Stoke's shift. APC, in turn, emits at 655 nm upon excitation at 615 nm. The TR-FRET signal is measured as the ratio of the APC 655 nm signal divided by the internal europium reference 615 nm emission signal.
The POC (percentage of control) was determined by comparing the signal from hydroxylated peptide substrate in the enzyme reaction containing inhibitor compound with that from PHD2 enzyme with DMSO vehicle alone (HI control), and no enzyme (LO control). POC was calculated using the formula: % control (POC)=(cpd−average LO)/(average HI−average LO)*100. Data (consisting of POC and inhibitor concentration in μM) was fitted to a 4-parameter equation (y=A+((B−A)/(1+((x/C)^D))), where A is the minimum y (POC) value, B is the maximum y (POC), C is the x (cpd concentration) at the point of inflection and D is the slope factor) using a Levenburg-Marquardt non-linear regression algorithm.

HIF PHD2, sequence (Q9GZT9 whole entry): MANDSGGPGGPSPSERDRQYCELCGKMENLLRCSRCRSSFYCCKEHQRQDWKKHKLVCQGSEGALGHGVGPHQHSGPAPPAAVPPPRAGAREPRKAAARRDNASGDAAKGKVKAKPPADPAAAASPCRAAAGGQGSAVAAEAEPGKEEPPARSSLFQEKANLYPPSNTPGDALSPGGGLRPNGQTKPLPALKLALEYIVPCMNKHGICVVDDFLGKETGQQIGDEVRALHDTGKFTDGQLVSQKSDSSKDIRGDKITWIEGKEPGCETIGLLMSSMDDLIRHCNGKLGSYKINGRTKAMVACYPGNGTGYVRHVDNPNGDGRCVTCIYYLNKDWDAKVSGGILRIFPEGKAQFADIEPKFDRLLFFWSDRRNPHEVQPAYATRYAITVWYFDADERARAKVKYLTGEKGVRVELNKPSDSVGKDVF

**Q.** `CC1(C)C(=O)C(C(=O)NCC(=O)O)=C(O)c2ccc(-c3ccccc3)cc21` [Example 52, N-((7-Phenyl-4-hydroxy-1,1-dimethyl-2-oxo-naphthalen-3-yl)carbonyl)glycine] was tested. Which IC50 did it give?
**A.** 100 to 500 nM

**Q.** How did the IC50 turn out when `CC1(C)C(=O)C(C(=O)NCC(=O)O)=C(O)c2ccc(Br)cc21` [Example 53, N-((7-Bromo-4-hydroxy-1,1-dimethyl-2-oxo-naphthalen-3-yl)carbonyl)glycine] was run?
**A.** < 100 nM

**Q.** With `CC(C)(NC(=O)C1=C(O)c2cc(Cl)ccc2C2(CCOCC2)C1=O)C(=O)O` [Example 54, N-((6-Chloro-4-hydroxy-2-oxo-2′,3′,5′,6′-tetrahydro-spiro[naphthalene-1,4′-pyran]-3-yl)carbonyl)-2-methylalanine] as the compound, how does the IC50 read?
**A.** > 10000 nM

**Q.** How did the IC50 turn out when `C[C@H](NC(=O)C1=C(O)c2cc(Cl)ccc2C2(CCOCC2)C1=O)C(=O)O` [Example 55, N-((6-Chloro-4-hydroxy-2-oxo-2′,3′,5′,6′-tetrahydro-spiro[naphthalene-1,4′-pyran]-3-yl)carbonyl)-L-alanine] was run?
**A.** 100 to 500 nM

**Q.** With `C[C@@H](NC(=O)C1=C(O)c2cc(Cl)ccc2C2(CCOCC2)C1=O)C(=O)O` [Example 56, N-((6-Chloro-4-hydroxy-2-oxo-2′,3′,5′,6′-tetrahydro-spiro[naphthalene-1,4′-pyran]-3-yl)carbonyl)-D-alanine] as the compound, how does the IC50 read?
**A.** > 10000 nM

**Q.** Which IC50 does the source give for `CC1(C)C(=O)C(C(=O)NCC(=O)O)=C(O)c2cc(Cl)cc(F)c21` [Example 57, N-((6-Chloro-8-fluoro-4-hydroxy-1,1-dimethyl-2-oxo-naphthalen-3-yl)carbonyl)glycine] here?
**A.** < 100 nM

**Q.** How did the IC50 turn out when `O=C(O)CNC(=O)C1=C(O)c2cc(F)c(F)cc2C2(CCOCC2)C1=O` [Example 58, N-((6,7-Difluoro-4-hydroxy-2-oxo-2′,3′,5′,6′-tetrahydro-spiro[naphthalene-1,4′-pyran]-3-yl)carbonyl)glycine] was run?
**A.** < 100 nM

**Q.** For `CC1(C)C(=O)C(C(=O)NCC(=O)O)=C(O)c2cc(F)c(F)cc21` [Example 59, N-((6,7-Difluoro-4-hydroxy-1,1-dimethyl-2-oxo-naphthalen-3-yl)carbonyl)glycine], which IC50 is on record?
**A.** < 100 nM

**Q.** `O=C(O)CNC(=O)C1=C(O)c2cc(Cl)ccc2C2(CCCCC2)C1=O` [Example 60, N-((6′-Chloro-4′-hydroxy-2′-oxo-spiro[cyclohexane-1,1′-naphthalen]-3′-yl)carbonyl)glycine] was tested. Which IC50 did it give?
**A.** 100 to 500 nM

**Q.** With `Cc1ccc2c(c1)C(O)=C(C(=O)NCC(=O)O)C(=O)C2(C)C` [Example 61, N-((6-Methyl-4-hydroxy-1,1-dimethyl-2-oxo-naphthalen-3-yl)carbonyl)glycine] as the compound, how does the IC50 read?
**A.** < 100 nM

**Q.** For `O=C(O)CNC(=O)C1=C(O)c2cc(Cl)c(Cl)cc2C2(CCOCC2)C1=O` [Example 62, N-((6,7-Dichloro-4-hydroxy-2-oxo-2′,3′,5′,6′-tetrahydro-spiro[naphthalene-1,4′-pyran]-3-yl)carbonyl)glycine], which IC50 is on record?
**A.** < 100 nM

**Q.** How did the IC50 turn out when `CC1(C)C(=O)C(C(=O)NCC(=O)O)=C(O)c2ccccc21` [Example 63, N-((4-Hydroxy-1,1-dimethyl-2-oxo-naphthalen-3-yl)carbonyl)glycine] was run?
**A.** < 100 nM

**Q.** For `CC1(C)C(=O)C(C(=O)NCC(=O)O)=C(O)c2cc(Cl)c(Cl)cc21` [Example 64, N-((6,7-Dichloro-4-hydroxy-1,1-dimethyl-2-oxo-naphthalen-3-yl)carbonyl)glycine], which IC50 is on record?
**A.** < 100 nM

**Q.** For `Cc1ccccc1-c1ccc2c(c1)C(O)=C(C(=O)NCC(=O)O)C(=O)C2(C)C` [Example 65, N-((6-(2-Methylphenyl)-4-hydroxy-1,1-dimethyl-2-oxo-naphthalen-3-yl)carbonyl)glycine], which IC50 is on record?
**A.** 500 to 1000 nM

**Q.** For `C[C@H](NC(=O)C1=C(O)c2cc(Cl)ccc2C(C)(C)C1=O)C(=O)O` [Example 66, N-((6-Chloro-4-hydroxy-1,1-dimethyl-2-oxo-naphthalen-3-yl)carbonyl)-L-alanine], which IC50 is on record?
**A.** 100 to 500 nM

**Q.** For `O=C(O)CNC(=O)C1=C(O)c2cc(-c3ccccc3)ccc2C2(CCCC2)C1=O` [Example 67, N-((4′-Hydroxy-2′-oxo-6′-phenyl-spiro[cyclopentane-1,1′-naphthalen]-3′-yl)carbonyl)glycine], which IC50 is on record?
**A.** 1000 to 10000 nM

**Q.** For `CC1(C)C(=O)C(C(=O)NCC(=O)O)=C(O)c2cc(-c3ccccc3)ccc21` [Example 68, N-((6-Phenyl-4-hydroxy-1,1-dimethyl-2-oxo-naphthalen-3-yl)carbonyl)glycine], which IC50 is on record?
**A.** 500 to 1000 nM

**Q.** Which IC50 does the source give for `O=C(O)CNC(=O)C1=C(O)c2ccccc2C2(CCN(Cc3ccccc3)CC2)C1=O` [Example 69, N-((4-Hydroxy-2-oxo-2′,3′,5′,6′-tetrahydro-N-benzyl-spiro[naphthalene-1,4′-piperidine]-3-yl)carbonyl)glycine] here?
**A.** < 100 nM

**Q.** With `O=C(O)CNC(=O)C1=C(O)c2ccccc2C2(CCNCC2)C1=O` [Example 70, N-((4-Hydroxy-2-oxo-2′,3′,5′,6′-tetrahydro-spiro[naphthalene-1,4′-piperidine]-3-yl)carbonyl)glycine] as the compound, how does the IC50 read?
**A.** 100 to 500 nM

**Q.** How did the IC50 turn out when `O=C(O)CNC(=O)C1=C(O)c2cc(Cl)ccc2C2(CCN(Cc3ccccc3)CC2)C1=O` [Example 71, N-((6-Chloro-4-hydroxy-2-oxo-2′,3′,5′,6′-tetrahydro-N-benzyl-spiro[naphthalene-1,4′-piperidine]-3-yl)carbonyl)glycine] was run?
**A.** < 100 nM

**Q.** For `O=C(O)CNC(=O)C1=C(O)c2cc(Cl)ccc2C2(CCCO2)C1=O` (stereo not shown) [Example 72, N-((6′-Chloro-4′-hydroxy-2′-oxo-4,5-dihydro-spiro[furan-2,1′-naphthalen]-3′-yl)carbonyl)glycine], which IC50 is on record?
**A.** < 100 nM

**Q.** `O=C(O)CNC(=O)C1=C(O)c2cc(Cl)ccc2[C@@]2(CCCO2)C1=O` [Example 73, N-(((2S)-6′-Chloro-4′-hydroxy-2′-oxo-4,5-dihydro-spiro[furan-2,1′-naphthalen]-3′-yl)carbonyl)glycine] was tested. Which IC50 did it give?
**A.** < 100 nM

**Q.** Which IC50 does the source give for `O=C(O)CNC(=O)C1=C(O)c2cc(Cl)ccc2[C@]2(CCCO2)C1=O` [Example 74, N-(((2R)-6′-Chloro-4′-hydroxy-2′-oxo-4,5-dihydro-spiro[furan-2,1′-naphthalen]-3′-yl)carbonyl)glycine] here?
**A.** 100 to 500 nM

**Q.** How did the IC50 turn out when `O=C(O)CNC(=O)C1=C(O)c2cc(Cl)ccc2C2(CCCOC2)C1=O` (stereo not shown) [Example 75, N-((6-Chloro-4-hydroxy-2-oxo-5′,6′-dihydro-spiro[naphthalene-1,3′-pyran]-3-yl)carbonyl)glycine] was run?
**A.** < 100 nM

**Q.** For `O=C(O)CNC(=O)C1=C(O)c2cc(Cl)ccc2[C@]2(CCCOC2)C1=O` [Example 76, N-(((1S)-6-Chloro-4-hydroxy-2-oxo-5′,6′-dihydro-spiro[naphthalene-1,3′-pyran]-3-yl)carbonyl)glycine], which IC50 is on record?
**A.** 100 to 500 nM

**Q.** How did the IC50 turn out when `O=C(O)CNC(=O)C1=C(O)c2cc(Cl)ccc2[C@@]2(CCCOC2)C1=O` [Example 77, N-(((1R)-6-Chloro-4-hydroxy-2-oxo-5′,6′-dihydro-spiro[naphthalene-1,3′-pyran]-3-yl)carbonyl)glycine] was run?
**A.** < 100 nM

**Q.** Which IC50 does the source give for `CC[C@]1(C)C(=O)C(C(=O)NCC(=O)O)=C(O)c2cc(Cl)ccc21` [Example 79, N-(((1S)-6-Chloro-4-hydroxy-1-ethyl-1-methyl-2-oxo-naphthalen-3-yl)carbonyl)glycine] here?
**A.** 100 to 500 nM

**Q.** How did the IC50 turn out when `O=C(O)CNC(=O)C1=C(O)c2cc(Cl)ccc2C2(CCC(=O)CC2)C1=O` [Example 80, N-((6′-Chloro-4′-hydroxy-2′,4-dioxo-spiro[cyclohexane-1,1′-naphthalen]-3′-yl)carbonyl)glycine] was run?
**A.** < 100 nM
